Data from patent US3988466A, “Prevention of gastric lesions” (priority 1973, dated 1976).
Where “and” joins values, the source holds several entries; their conditions need not be identical. Identical values can stand only once. Entries after “also recorded” stand apart in the source; their conditions may differ. Like-named read-outs stand apart in the source and are kept apart here.

How the values were obtained:
[1] = test system: aspirin-induced gastric lesions in pylorus-ligated rats; assay: Effect of various amino acids on aspirin-induced gastric lesions in pylorus-ligated rats (Experiment 3); assay type: in vivo, male Donryu strain rats
[2] = pH of amino acids in 1% carboxymethylcellulose solution; assay type: physicochemical; conditions: 150 mg/ml in 1% carboxymethylcellulose solution
Method: The pH values of the amino acids are also determined. The amino acids are separately dissolved or suspended in 1% carboxymethylcellulose solution at a concentration of 150 mg/ml and the pH is measured on an Hitachi pH meter (product of Hitachi Ltd., Japan).

[3] = test system: gastric secretion in pylorus-ligated rats; assay: Effect of L-glutamine on gastric secretion in pylorus-ligated rats (Experiment 4); assay type: in vivo, male Donryu strain rats
Method: In this Experiment, 7 groups of male Donryu strain rats are used. After 24 hours of fasting, the pylorus of the animal is ligated in the same manner as described in Experiment 1. Six groups are treated in the same manner as described in Experiment 1 except for the injection of the solution of pontamine sky blue 6BX in saline. A seventh group (normal) is treated twice with 5 ml/kg of 1% carboxymethylcellulose solution.
After 7 hours of pylorus ligation, the animals are killed and the stomach is removed. The gastric juice is collected and the volume is measured. The gastric juice is titrated to pH 7.4 with 0.1N NaOH using an electromatic pH meter. The concentration of pepsin in the gastric juice is also determined according to Anson's hemoglobin method [Anson, M. L., J. Gen. Physiol.

[4] = test system: yeast-induced fever in rats; assay: Effect of L-glutamine on antipyretic activity of aspirin in rats (Experiment B); assay type: in vivo, male Wistar strain rats; conditions: aspirin 200 mg/kg oral
Method: In this Experiment, male Wistar strain rats weighing about 90-100 g are treated with 2.5 ml/rat of a suspension of yeast (Brewers Yeast, product of Nutritional Biochem. Co., U.S.A.) in physiological saline (concentration: 250 mg/ml), by subcutaneous injection in the back, according to the method of Gleen et al [Gleen, E. M. et al: J. Pharma. Exp. Therp., 155, 157 (1967)]. The animals are then fasted. The animals showing an increased rectal temperature of 38° C or more after 17 hours are selected for use in experiment. […] As a control, one group is treated with 105 ml of 1% carboxymethylcellulose solution alone. After the treatment, the rectal temperature is measured at the time indicated.

[5] = test system: acetic acid-induced writhing response in mice; assay: Effect of L-glutamine on analgesic activity of aspirin in mice (Experiment C); assay type: in vivo, male dd strain mice; conditions: aspirin 300 mg/kg oral; writhings in 10 minutes
Method: In this Experiment, 3 groups of male dd strain mice weighing 19-21 g are used.
As a control, the third group is treated only with 1% carboxymethylcellulose solution. After a control period of one hour, the animals are treated with 0.2 ml of 0.7% acetic acid solution in physiological saline by intraperitoneal injection, according to the method of Koster et al. [Koster, R. et al: Fed. Proc., 18, 412 (1959)]. Starting 10 minutes after the administration of acetic acid, the number of writhing reaction occurred in 10 minutes is counted.

[6] = Rattus norvegicus, po, read-out: Inhibition
[7] = amino acid 750 mg/kg oral; aspirin by gastric intubation
[8] = Rattus norvegicus, po; read-out: Inhibition
[9] = Control group: aspirin 100 mg/kg without L-glutamine, 7 hours

Amino acid pH [2] | SMILES | effect on aspirin-induced gastric lesions (in words) ([1]; amino acid 750 mg/kg oral) | Ulcer index [1, 7] [mm] | inhibition in vivo at 750 mg/kg [1, 8] [%] | other results
5.51 | NC(=O)CC[C@@H](N)C(=O)O [D-glutamine] |  | 7.7±1.8 | 82.9 | 
5.81 | N[C@@H](CS)C(=O)O [L-cysteine] | no appreciable effect | 40.5±7.6 | 10.2 | 
7.15 | CC(C)C[C@H](N)C(=O)O [L-leucine] |  | 8.8±2.8 | 80.5 | 
5.80 | NC(=O)C[C@H](N)C(=O)O [L-asparagine] |  | 10.0±2.2 | 77.8 | 
3.33 | N[C@@H](CC(=O)O)C(=O)O [L-aspartic acid] | no appreciable effect; also recorded: no significant effect | 37.3±6.9 | 17.3 | 
6.09 | CSCC[C@H](N)C(=O)O [L-methionine] | effective for the prevention of the gastric lesions with high significance | 13.0±3.3 | 71.2 | 
6.11 | N[C@@H](CO)C(=O)O [L-serine] |  | 3.0±1.0 | 93.3 | 
6.26 | N[C@@H](Cc1ccccc1)C(=O)O [L-phenylalanine] | significant inhibition of the lesions | 21.5±3.7 | 52.3 | 
3.45 | N[C@@H](CCC(=O)O)C(=O)O [L-glutamic acid] | good effect | 9.1±2.6 | 79.8 | 
8.27 | NC(Cc1c[nH]c2ccccc12)C(=O)O (racemic) [DL-tryptophan] |  | 27.4±4.3 | 39.2 | 
7.86 | N[C@@H](Cc1c[nH]cn1)C(=O)O [L-histidine] |  | 2.1±0.8 | 95.3 | 

Continued, compound first:

SMILES | Amino acid pH [2] | effect on aspirin-induced gastric lesions (in words) ([1]; amino acid 750 mg/kg oral) | Ulcer index [1, 7] [mm] | inhibition in vivo at 750 mg/kg [1, 8] [%] | other results
NCCCC[C@H](N)C(=O)O [L-lysine] | 10.26 | prevent the aspirin-induced gastric lesions almost completely; also recorded: best preventive effect | 0.4±0.2 |  | inhibition in vivo at 750 mg/kg [1, 6]: 99.1%
N[C@@H](Cc1ccc(O)cc1)C(=O)O [L-tyrosine] | 7.52 and 7.25 | no appreciable effect; also recorded: no significant effect | 39.3±3.0 |  | inhibition in vivo at 750 mg/kg [1, 6]: 12.9%
CC(=O)Oc1ccccc1C(=O)O [aspirin, reference compound] |  |  |  |  | Gastric juice volume [3, 9]: 12.5 ± 0.5 mL; Pepsin concentration [3, 9]: 31.8 ± 1.0 mg/mL; Titrable acidity [3, 9]: 65.1±5.7 mEq/L; concentration of pepsin (in words) ([3]; administration of aspirin): increased; effect on acid output (in words) ([3]; aspirin itself): considerably reduces the titrable acidity and acid output; effect on titrable acidity (in words) ([3]; aspirin itself): considerably reduces the titrable acidity; effect on volume of gastric juice (in words) ([3]; aspirin itself): does not affect the volume of gastric juice; Rectal temperature ([4]; 0 hour): 38.4±0.1 °C; Rectal temperature ([4]; 1 hour): 37.9±0.1 °C; Rectal temperature ([4]; 2 hours): 36.7±0.2 °C; Rectal temperature ([4]; 4 hours): 36.6±0.1 °C; Rectal temperature ([4]; 6 hours): 36.9±0.2 °C; Writhing response number [5]: 10±1
N[C@@H](CSSC[C@H](N)C(=O)O)C(=O)O [L-cystine] | 6.62 | no appreciable effect | 41.6±3.9 | 7.8 | 
N=C(N)NCCC[C@H](N)C(=O)O [L-arginine] | 11.00 | prevent the aspirin-induced gastric lesions almost completely; also recorded: best preventive effect | 0.9±0.5 |  | inhibition in vivo at 750 mg/kg [1, 6]: 98%
CC(C)[C@H](N)C(=O)O [L-valine] | 6.80 |  | 3.7±1.3 | 91.8 | 
CC[C@H](C)[C@H](N)C(=O)O [L-isoleucine] | 6.60 | effective for the prevention of the gastric lesions with high significance | 11.9±2.3 | 72.6 | 
O=C(O)[C@@H]1CCCN1 [L-proline] | 6.32 |  | 10.1±2.3 | 77.6 | 
C[C@@H](O)[C@H](N)C(=O)O [L-threonine] | 6.26 |  | 4.7±1.1 | 89.6 | 
C[C@H](N)C(=O)O [L-alanine] | 6.45 |  | 6.7±1.5 | 85.1 | 
NCC(=O)O [glycine] | 6.12 |  | 6.4±1.7 |  | inhibition in vivo at 750 mg/kg [1, 6]: 85.8%
O=C(O)[C@@H]1C[C@@H](O)CN1 [L-hydroxyproline] | 7.86 | effective for the prevention of the gastric lesions with high significance | 12.8±2.6 |  | inhibition in vivo at 750 mg/kg [1, 6]: 71.6%
